Read-outs that look alike come from different tables or passages of the source.
Target: T1, apelin receptor (APJ) (Homo sapiens, UniProt P35414)
T1 sequence (P35414 1-380): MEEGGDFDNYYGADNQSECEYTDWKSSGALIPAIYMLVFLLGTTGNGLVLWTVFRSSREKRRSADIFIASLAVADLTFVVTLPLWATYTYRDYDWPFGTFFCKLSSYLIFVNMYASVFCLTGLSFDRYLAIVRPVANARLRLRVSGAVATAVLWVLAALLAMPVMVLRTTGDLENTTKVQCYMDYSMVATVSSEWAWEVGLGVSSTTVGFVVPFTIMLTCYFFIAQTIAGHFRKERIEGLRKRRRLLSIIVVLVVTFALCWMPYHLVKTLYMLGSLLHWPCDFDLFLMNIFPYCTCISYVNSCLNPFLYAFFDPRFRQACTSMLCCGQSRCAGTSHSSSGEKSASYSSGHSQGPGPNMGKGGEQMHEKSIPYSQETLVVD
Assay: In vitro apelin agonist activity (methods of Giddings et al., Apelin-13 as positive control)
Assay type: cell-based
Details: in vitro apelin agonist activity, methods of Giddings et al., Apelin-13 as positive control
Description: Characterization of the Apelin Agonist Activity of the Compounds
1:39-47, the contents of which are hereby incorporated by reference in its entirety. Using the methods described in Giddings et al. and Apelin-13 as a positive control.

Row | Compound | EC50 (read-out: EC50 (nM) Ave) [nM] | EC50 (EC50 (nM) Ave) [nM]
1 | CCN(CC)CC[C@@H](CC(=O)OC(C)(C)C)NC(=O)c1cc(-c2c(OC)cccc2OC)n(C2CCCC2)n1 [compound 305, tert-butyl (3S)-3-{[1-cyclopentyl-5-(2,6-dimethoxyphenyl)-1H-pyrazol-3-yl]formamido}-5-(diethylamino)pentanoate] | > 10000 | –
2 | CN(C[C@@H](CC(=O)NC1CCC1)NC(=O)c1cc(-c2ccccc2C(F)(F)F)n(C2CCCC2)n1)C1CCCCC1 [compound 547] | – | 5120
3 | CC(C)C[C@@H](CC(=O)NCc1ccccc1)NC(=O)c1cc(-c2ccccc2C(F)(F)F)n(C2CCCC2)n1 [compound 441, (3S)-N-benzyl-3-({1-cyclopentyl-5-[2-(trifluoromethyl)phenyl]-1H-pyrazol-3-yl}formamido)-5-methylhexanamide] | > 10000 | –
4 | O=C(O)C[C@@H](NC(=O)c1cc(-c2ccccc2C(F)(F)F)n(C2CCCC2)n1)C(=O)NC1CCOCC1 [compound 559, (3R)-3-({1-cyclopentyl-5-[2-(trifluoromethyl)phenyl]-1H-pyrazol-3-yl}formamido)-3-[(oxan-4-yl)carbamoyl]propanoic acid] | 596 | –
5 | O=C(O)C[C@H](CCNC(=O)C1CCCC1)NC(=O)c1cc(-c2ccccc2C(F)(F)F)n(C2CCCC2)n1 [compound 538, (3S)-3-({1-cyclopentyl-5-[2-(trifluoromethyl)phenyl]-1H-pyrazol-3-yl}formamido)-5-(cyclopentylformamido)pentanoic acid] | 544 | –
6 | COc1cccc(OC)c1-c1cc(C(=O)N[C@@H](CCc2ccccc2)C(=O)O)nn1C1CCCC1 [compound 389, (2S)-2-{[1-cyclopentyl-5-(2,6-dimethoxyphenyl)-1H-pyrazol-3-yl]formamido}-4-phenylbutanoic acid] | > 10000 | –
7 | COc1cccc(OC)c1-c1cc(C(=O)N[C@@H](CCN2CCCCC2)CC(=O)NC2CCC2)nn1C1CCCCC1C (stereo partly drawn) [compound 356, (3S)-N-cyclobutyl-3-{[5-(2,6-dimethoxyphenyl)-1-(2-methylcyclohexyl)-1H-pyrazol-3-yl]formamido}-5-(piperidin-1-yl)pentanamide] | > 10000 | –
8 | CCOc1cc(F)c(-c2cc(C(=O)N[C@@H](CCN3CCCCC3)CC(=O)NC3CCC3)nn2C2CCCC2)c(F)c1 [compound 355, (3S)-N-cyclobutyl-3-{[1-cyclopentyl-5-(4-ethoxy-2,6-difluorophenyl)-1H-pyrazol-3-yl]formamido}-5-(piperidin-1-yl)pentanamide] | 5080 | –
9 | CS(=O)(=O)c1ccccc1-c1cc(C(=O)N[C@@H](CCN2CCCCC2)CC(=O)NC2CCC2)nn1C1CCCC1 [compound 367, (3S)-N-cyclobutyl-3-{[1-cyclopentyl-5-(2-methanesulfonylphenyl)-1H-pyrazol-3-yl]formamido}-5-(piperidin-1-yl)pentanamide] | 2970 | –
10 | CCC(CC)n1nc(C(=O)N[C@@H](CCN2CCCCC2)CC(=O)NC2CCC2)cc1-c1c(OC)cccc1OC [compound 357, (3S)-N-cyclobutyl-3-{[5-(2,6-dimethoxyphenyl)-1-(pentan-3-yl)-1H-pyrazol-3-yl]formamido}-5-(piperidin-1-yl)pentanamide] | > 10000 | –
11 | COc1cccc(OC)c1-c1cc(C(=O)N[C@@H](CC2CCCC2)C(=O)O)nn1C1CCCC1 [compound 393, (2S)-3-cyclopentyl-2-{[1-cyclopentyl-5-(2,6-dimethoxyphenyl)-1H-pyrazol-3-yl]formamido}propanoic acid] | 424 | –
12 | COc1cccc(OC)c1-c1cc(C(=O)N[C@@H](CCc2ccccc2)Cc2nnn[nH]2)nn1C1CCCC1 [compound 390, 1-cyclopentyl-5-(2,6-dimethoxyphenyl)-N-[(2S)-4-phenyl-1-(1H-1,2,3,4-tetrazol-5-yl)butan-2-yl]-1H-pyrazole-3-carboxamide] | 429 | –
13 | Cc1cccc(C)c1-c1cc(C(=O)N[C@@H](CCN2CCCCC2)CC(=O)NC2CCC2)nn1C1CCCC1 [compound 371, (3S)-N-cyclobutyl-3-{[1-cyclopentyl-5-(2,6-dimethylphenyl)-1H-pyrazol-3-yl]formamido}-5-(piperidin-1-yl)pentanamide] | 3840 | –
14 | CCN(C(=O)c1cc(-c2cccs2)n(C2CCCC2)n1)[C@@H](CCN1CCCCC1)CC(=O)NC1CCC1 [compound 347] | > 10000 | –
15 | COc1cccc(OC)c1-c1cc(C(=O)N[C@@H](CCc2ccccc2)C(=O)Nc2nnn[nH]2)nn1C1CCCC1 [compound 395, (2S)-2-{[1-cyclopentyl-5-(2,6-dimethoxyphenyl)-1H-pyrazol-3-yl]formamido}-4-phenyl-N-(1H-1,2,3,4-tetrazol-5-yl)butanamide] | > 10000 | –
16 | CC(C)(C)Cn1nc(C(=O)N[C@@H](CCN2CCCC(F)(F)C2)CC(=O)O)cc1-c1ccccc1C(F)(F)F [compound 568, (3S)-5-(3,3-difluoropiperidin-1-yl)-3-{[1-(2,2-dimethylpropyl)-5-[2-(trifluoromethyl)phenyl]-1H-pyrazol-3-yl]formamido}pentanoic acid] | > 10000 | –

The remaining compounds from weak to strong by EC50 (read-out: EC50 (nM) Ave), led by results:

Row | EC50 (read-out: EC50 (nM) Ave) [nM] | Compound | EC50 (EC50 (nM) Ave) [nM]
17 | 401 | O=C(O)C[C@H](CCN1CCCC(F)(F)C1)NC(=O)c1cc(-c2ccccc2C(F)(F)F)n(CC2CC2)n1 [compound 557, (3S)-3-{[1-(cyclopropylmethyl)-5-[2-(trifluoromethyl)phenyl]-1H-pyrazol-3-yl]formamido}-5-(3,3-difluoropiperidin-1-yl)pentanoic acid] | –
18 | 277 | O=C(O)C[C@H](CCN1CCCC[C@H]1C(F)(F)F)NC(=O)c1cc(-c2ccccc2C(F)(F)F)n(C2CCCC2)n1 [compound 487, (3S)-3-({1-cyclopentyl-5-[2-(trifluoromethyl)phenyl]-1H-pyrazol-3-yl}formamido)-5-[(2S)-2-(trifluoromethyl)piperidin-1-yl]pentanoic acid] | –
19 | 200 | COc1cccc(OC)c1-c1cc(C(=O)N[C@@H](CCN2CCCCC2)Cc2nnc[nH]2)nn1C1CCCC1 [compound 414] | –
20 | 191 | NNC(=O)C[C@H](CCN1CCCC(F)(F)C1)NC(=O)c1cc(-c2ccccc2Cl)n(C2CCCC2)n1 [compound 465, 5-(2-chlorophenyl)-1-cyclopentyl-N-[(2S)-4-(3,3-difluoropiperidin-1-yl)-1-(hydrazinecarbonyl)butan-2-yl]-1H-pyrazole-3-carboxamide] | –
21 | 182 | O=C(O)C[C@H](CCN1C(=O)CCC1=O)NC(=O)c1cc(-c2ccccc2C(F)(F)F)n(C2CCCC2)n1 [compound 643, (3S)-3-({1-cyclopentyl-5-[2-(trifluoromethyl)phenyl]-1H-pyrazol-3-yl}formamido)-5-(2,5-dioxopyrrolidin-1-yl)pentanoic acid] | –
22 | 158 | CC(C(=O)NC1CCC1)[C@H](CCN1CC2C(C1)C2(F)F)NC(=O)c1cc(-c2ccccc2C(F)(F)F)n(C2CCCC2)n1 (stereo partly drawn) [compound 636, (3S)-N-cyclobutyl-3-({1-cyclopentyl-5-[2-(trifluoromethyl)phenyl]-1H-pyrazol-3-yl}formamido)-5-{6,6-difluoro-3-azabicyclo[3.1.0]hexan-3-yl}-2-methylpentanamide] | –
23 | 134 | O=C(C[C@H](CCN1CCCC(F)(F)C1)NC(=O)c1cc(-c2ccccc2C(F)(F)F)n(C2CCCC2)n1)NS(=O)(=O)C(F)(F)F [compound 529, (3S)-3-({1-cyclopentyl-5-[2-(trifluoromethyl)phenyl]-1H-pyrazol-3-yl}formamido)-5-(3,3-difluoropiperidin-1-yl)-N-(trifluoromethane)sulfonylpentanamide] | –
24 | 66 | O=C(N[C@@H](CCN1C(=O)CCCC1=O)Cc1nnn[nH]1)c1cc(-c2ccccc2C(F)(F)F)n(C2CCCC2)n1 [compound 655, 1-cyclopentyl-N-[(2S)-4-(2,6-dioxopiperidin-1-yl)-1-(1H-1,2,3,4-tetrazol-5-yl)butan-2-yl]-5-[2-(trifluoromethyl)phenyl]-1H-pyrazole-3-carboxamide] | –
25 | 64 | O=C(C[C@H](CCN1CCCCC1)NC(=O)c1cc(-c2ccccc2C(F)(F)F)n(C2CCCC2)n1)NC1CCC1 [compound 408, (3S)-N-cyclobutyl-3-({1-cyclopentyl-5-[2-(trifluoromethyl)phenyl]-1H-pyrazol-3-yl]formamido)-5-(piperidin-1-yl)pentanamide] | –
26 | 49 | O=C(C[C@H](CCN1CCCCC1)NC(=O)c1cc(-c2ccccc2C2CC2)n(C2CCCC2)n1)NC1CCC1 [compound 413, (3S)-N-cyclobutyl-3-{[1-cyclopentyl-5-(2-cyclopropylphenyl)-1H-pyrazol-3-yl]formamido}-5-(piperidin-1-yl)pentanamide] | –
27 | 22.5 | CN(C(=O)C[C@H](CCN1CCCC(F)(F)C1)NC(=O)c1cc(-c2ccccc2C(F)(F)F)n(C2CCCC2)n1)c1nccs1 [compound 431, (3S)-3-({1-cyclopentyl-5-[2-(trifluoromethyl)phenyl]-1H-pyrazol-3-yl}formamido)-5-(3,3-difluoropiperidin-1-yl)-N-methyl-N-(1,3-thiazol-2-yl)pentanamide] | –
28 | 14.5 | CCc1ccccc1-c1cc(C(=O)N[C@@H](CCN2CCC(F)(F)CC2)CC(=O)NC2CCC2)nn1C1CCCC1 [compound 411, (3S)-N-cyclobutyl-3-{[1-cyclopentyl-5-(2-ethylphenyl)-1H-pyrazol-3-yl]formamido}-5-(4,4-difluoropiperidin-1-yl)pentanamide] | –
29 | 1.96 | N#CC1CCN(CC[C@@H](CC(=O)NC2CCC2)NC(=O)c2cc(-c3ccccc3C(F)(F)F)n(C3CCCC3)n2)C1 (stereo partly drawn) [compound 481, (3S)-5-(3-cyanopyrrolidin-1-yl)-N-cyclobutyl-3-({1-cyclopentyl-5-[2(trifluoromethyl)phenyl]-1H-pyrazol-3-yl}formamido)pentanamide] | –
